Reference: patent publication US20190274303A1, “USE OF A DIFLUORO-(2-HYDROXYPROPYL)PYRIDINE COMPOUND AS A FUNGICIDE FOR CONTROL OF PHYTOPATHOGENIC FUNGI OF BARLEY” (Dow AgroSciences LLC, priority 2016, published 2019)

System: Rhyncosporium secalis (RHYNSE)
Assay: Field assessment of barley leaf scald, Trial 1 (EC formulation alone or with adjuvants)
Assay type: in vivo
Settings: for % Control RHYNSE: based on AUDPC, winter barley, field, EC
Method: Field assessment of Rhyncosporium secalis (RHYNSE) in barley:
Trial 1: A fungicidal treatment containing Compound I was assessed against barley scald (RHYNSE) in two separate field trials. In the first trial, a fungicidal treatment containing an EC formulation of compound I by itself and in combination with two separate adjuvants was sprayed on barley plants at rates of 50, 100 and 150 grams active ingredient per hectare (g ai/ha). Fungicidal treatments were applied at B47-51 (curative, 3% infection on leaf 2) growth stage of winter barley (HORVW, Lomerit variety) under natural infection of RHYNSE. The treatment was part of an experimental trial designed as a randomized complete block with four replications and a plot of approximately 2×3 m. Compound I was applied at water volume of 200 L/ha, using a backpack precision plot sprayer (BICYCAIR, Flat Fan Air Assisted Nozle) and pressurized at 220 kPa.
Disease severity was recorded as a percentage of visual diseased foliage on whole plot. Barley leaf scald infection was assessed several times during the growing season with a final assessment 39 days after application of compound I. The disease infection was recorded following EPPO PP1/26 guideline prescriptions. Area under the disease progress curve (AUDPC) was calculated for each plot using the sets of recorded severity data. Relative AUDPC (% control based on AUDPC) was calculated as percent of the nontreated control.
In each case of the following Tables, the rating scale of percent control based on AUDPC is as follows: […]

N#Cc1ccc(Oc2ccc(C(F)(F)C(O)(Cn3ncnc3S)c3ccc(F)cc3F)nc2)cc1 (stereo not shown) [Compound I, 4-((6-(2-(2,4-difluorophenyl)-1,1-difluoro-2-hydroxy-3-(5-mercapto-1H-1,2,4-triazol-1-yl)propyl)pyridin-3-yl)oxy)benzonitrile]
C (26-50): % Control RHYNSE (50 g ai/ha, Agnique BP-420 (50% w/w at 0.15% v/v)) | % Control RHYNSE (50 g ai/ha, Agnique SBO-10 (0.15% v/v)) | % Control RHYNSE (50 g ai/ha, adjuvant None) | % Control RHYNSE (100 g ai/ha, adjuvant None) | % Control RHYNSE (150 g ai/ha, adjuvant None)
B (51-74): % Control RHYNSE (50 g ai/ha, Agnique BP-420 (50% w/w at 0.3% v/v)) | % Control RHYNSE (100 g ai/ha, Agnique BP-420 (50% w/w at 0.15% v/v)) | % Control RHYNSE (100 g ai/ha, Agnique BP-420 (50% w/w at 0.3% v/v)) | % Control RHYNSE (100 g ai/ha, Agnique SBO-10 (0.15% v/v)) | % Control RHYNSE (150 g ai/ha, Agnique BP-420 (50% w/w at 0.15% v/v)) | % Control RHYNSE (150 g ai/ha, Agnique BP-420 (50% w/w at 0.3% v/v)) | % Control RHYNSE (150 g ai/ha, Agnique SBO-10 (0.15% v/v))
significant fungicidal effect: fungicidal effect on Rhyncosporium secalis (leaf scald of barley, general statement)
